Measurements reported in patent US12599136B2, “Substituted isophthalic acid diamides and their use as herbicides” (Bayer Aktiengesellschaft, priority 2020, dated 2026).

What was measured:
Type in all cases: in vivo
[1] = test system: Cyperus esculentus; test: Post-emergence herbicidal action against CYPES; conditions: 80 g/ha, visual assessment about 3 weeks after treatment
Outline: (§1)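 Greenhouse plants in sandy loam were sprayed at the one-leaf stage, 2 to 3 weeks after sowing, with WP or EC formulations as aqueous suspension or emulsion (600 to 800 l/ha water, 0.2% wetting agent). Visual damage was scored about 3 weeks later versus untreated controls, 0% = like control, 100% = dead.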

[2] = test system: Pharbitis purpurea; test: Post-emergence herbicidal action against PHBPU; conditions: visual assessment about 3 weeks after treatment
Outline: as §1

[3] = test system: Lolium rigidum; test: Post-emergence herbicidal action against LOLRI; conditions: 80 g/ha
Outline: as §1

[4] = test system: Matricaria inodora; test: Pre-emergence herbicidal action against MATIN; conditions: visual score after 3 weeks vs untreated controls
Outline: (§2)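 Pre-emergence soil-surface spray of formulated compound (WP or EC; 600 to 800 l/ha; 0.2% wetting agent) over seeds sown in sandy loam. After 3 weeks under greenhouse conditions, damage is estimated visually in percent against untreated plants.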

[5] = test system: Setaria viridis; test: Post-emergence herbicidal action against SETVI; conditions: visual assessment about 3 weeks after treatment
Outline: as §1

[6] = test system: Hordeum murinum; test: Post-emergence herbicidal action against HORMU
Outline: as §1

[7] = test system: Alopecurus myosuroides; test: Post-emergence herbicidal action against ALOMY
Outline: as §1

[8] = test system: Amaranthus retroflexus; test: Post-emergence herbicidal action against AMARE; conditions: visual assessment about 3 weeks after treatment
Outline: as §1

[9] = test system: Alopecurus myosuroides; test: Pre-emergence herbicidal action against ALOMY; conditions: visual score after 3 weeks vs untreated controls
Outline: as §2

[10] = test system: Viola tricolor; test: Post-emergence herbicidal action against VIOTR
Outline: as §1

[11] = test system: Avena fatua; test: Pre-emergence herbicidal action against AVEFA; conditions: visual score after 3 weeks vs untreated controls
Outline: as §2

[12] = test system: Abutilon theophrasti; test: Post-emergence herbicidal action against ABUTH
Outline: as §1

[13] = test system: Viola tricolor; test: Pre-emergence herbicidal action against VIOTR
Outline: as §2

[14] = test system: Amaranthus retroflexus; test: Pre-emergence herbicidal action against AMARE; conditions: visual score after 3 weeks vs untreated controls
Outline: as §2

[15] = test system: Veronica persica; test: Pre-emergence herbicidal action against VERPE; conditions: 320 g/ha
Outline: as §2

[16] = test system: Stellaria media; test: Post-emergence herbicidal action against STEME; conditions: visual assessment about 3 weeks after treatment
Outline: as §1

[17] = test system: Setaria viridis; test: Pre-emergence herbicidal action against SETVI
Outline: as §2

[18] = test system: Hordeum murinum; test: Pre-emergence herbicidal action against HORMU; conditions: visual score after 3 weeks vs untreated controls
Outline: as §2

[19] = test system: Polygonum convolvulus; test: Post-emergence herbicidal action against POLCO; conditions: 80 g/ha, visual assessment about 3 weeks after treatment
Outline: as §1

[20] = test system: Matricaria inodora; test: Post-emergence herbicidal action against MATIN; conditions: visual assessment about 3 weeks after treatment
Outline: as §1

[21] = test system: Cyperus esculentus; test: Pre-emergence herbicidal action against CYPES; conditions: 320 g/ha; visual score after 3 weeks vs untreated controls
Outline: as §2

[22] = test system: Avena fatua; test: Post-emergence herbicidal action against AVEFA; conditions: visual assessment about 3 weeks after treatment
Outline: as §1

[23] = test system: Abutilon theophrasti; test: Pre-emergence herbicidal action against ABUTH; conditions: visual score after 3 weeks vs untreated controls
Outline: as §2

[24] = test system: Stellaria media; test: Pre-emergence herbicidal action against STEME
Outline: as §2

[25] = test system: Echinochloa crus-galli; test: Pre-emergence herbicidal action against ECHCG; conditions: visual score after 3 weeks vs untreated controls
Outline: as §2

[26] = test system: Echinochloa crus-galli; test: Post-emergence herbicidal action against ECHCG; conditions: visual assessment about 3 weeks after treatment
Outline: as §1

[27] = test system: Pharbitis purpurea; test: Pre-emergence herbicidal action against PHBPU; conditions: 320 g/ha; visual score after 3 weeks vs untreated controls
Outline: as §2

[28] = test system: Veronica persica; test: Post-emergence herbicidal action against VERPE; conditions: visual assessment about 3 weeks after treatment
Outline: as §1

[29] = test system: Lolium rigidum; test: Pre-emergence herbicidal action against LOLRI; conditions: 320 g/ha
Outline: as §2

CN(CC1CC1)C(=O)c1c(C(F)(F)F)ccc(C(=O)Nc2nnnn2C)c1Cl [Example 1-126]
Post-emergence action against CYPES in % [1]: 80%
Post-emergence action against PHBPU in % ([2]; 5 g/ha): 90%
Post-emergence action against PHBPU in % ([2]; 20 g/ha): 90%
Post-emergence action against PHBPU in % ([2]; 80 g/ha): 100%
Post-emergence action against LOLRI in % [3]: 90%
Pre-emergence action against MATIN ([4]; 20 g/ha): 80%
Pre-emergence action against MATIN ([4]; 80 g/ha): 100%
Pre-emergence action against MATIN ([4]; 320 g/ha): 100%
Post-emergence action against SETVI in % ([5]; 5 g/ha): 100%
Post-emergence action against SETVI in % ([5]; 20 g/ha): 100%
Post-emergence action against SETVI in % ([5]; 80 g/ha): 100%
Post-emergence action against HORMU in % ([6]; 20 g/ha): 100%
Post-emergence action against HORMU in % ([6]; 80 g/ha): 100%
Post-emergence action against ALOMY ([7]; 5 g/ha): 90%
Post-emergence action against ALOMY ([7]; 20 g/ha): 100%
Post-emergence action against ALOMY ([7]; 80 g/ha): 100%
Post-emergence action against AMARE in % ([8]; 5 g/ha): 100%
Post-emergence action against AMARE in % ([8]; 20 g/ha): 100%
Post-emergence action against AMARE in % ([8]; 80 g/ha): 100%
Pre-emergence action against ALOMY ([9]; 80 g/ha): 80%
Pre-emergence action against ALOMY ([9]; 320 g/ha): 90%
Post-emergence action against VIOTR in % ([10]; 5 g/ha): 90%
Post-emergence action against VIOTR in % ([10]; 20 g/ha): 100%
Post-emergence action against VIOTR in % ([10]; 80 g/ha): 100%
Pre-emergence action against AVEFA ([11]; 80 g/ha): 80%
Pre-emergence action against AVEFA ([11]; 320 g/ha): 100%
Post-emergence action against ABUTH ([12]; 5 g/ha): 100%
Post-emergence action against ABUTH ([12]; 20 g/ha): 100%
Post-emergence action against ABUTH ([12]; 80 g/ha): 100%
Pre-emergence action against VIOTR ([13]; 80 g/ha): 100%
Pre-emergence action against VIOTR ([13]; 320 g/ha): 100%
Pre-emergence action against AMARE ([14]; 20 g/ha): 80%
Pre-emergence action against AMARE ([14]; 80 g/ha): 90%
Pre-emergence action against AMARE ([14]; 320 g/ha): 100%
Pre-emergence action against VERPE [15]: 90%
Post-emergence action against STEME in % ([16]; 5 g/ha): 100%
Post-emergence action against STEME in % ([16]; 20 g/ha): 100%
Post-emergence action against STEME in % ([16]; 80 g/ha): 100%
Pre-emergence action against SETVI ([17]; 80 g/ha): 90%
Pre-emergence action against SETVI ([17]; 320 g/ha): 100%
Pre-emergence action against HORMU ([18]; 80 g/ha): 80%
Pre-emergence action against HORMU ([18]; 320 g/ha): 100%
Post-emergence action against POLCO in % [19]: 80%
Post-emergence action against MATIN in % ([20]; 5 g/ha): 80%
Post-emergence action against MATIN in % ([20]; 20 g/ha): 90%
Post-emergence action against MATIN in % ([20]; 80 g/ha): 100%
Pre-emergence action against CYPES [21]: 90%
Post-emergence action against AVEFA in % ([22]; 20 g/ha): 100%
Post-emergence action against AVEFA in % ([22]; 80 g/ha): 100%
Pre-emergence action against ABUTH ([23]; 20 g/ha): 100%
Pre-emergence action against ABUTH ([23]; 80 g/ha): 100%
Pre-emergence action against ABUTH ([23]; Dosage column 320 g/ha (heading prints 3200 g/ha)): 100%
Pre-emergence action against STEME ([24]; 20 g/ha): 80%
Pre-emergence action against STEME ([24]; 320 g/ha): 90%
Pre-emergence action against ECHCG ([25]; 80 g/ha): 90%
Pre-emergence action against ECHCG ([25]; 320 g/ha): 100%
Post-emergence action against ECHCG in % ([26]; 5 g/ha): 80%
Post-emergence action against ECHCG in % ([26]; 20 g/ha): 100%
Post-emergence action against ECHCG in % ([26]; 80 g/ha): 100%
Pre-emergence action against PHBPU [27]: 80%
Post-emergence action against VERPE in % ([28]; 20 g/ha): 80%
Post-emergence action against VERPE in % ([28]; 80 g/ha): 80%
Pre-emergence action against LOLRI [29]: 90%
